Where “and” joins values, the source holds several entries; their conditions need not be identical. Identical values can stand only once. Entries after “also recorded” stand apart in the source; their conditions may differ.
Assays:
[1] = system: PHFs; assay: Spectrofluorometry of primulin in solution and bound to PHFs (ifII); format: binding
Protocol: These measurements were carried out in a Perkin-Elmer spectrofluorimeter (model MPF-3). A concentration of ligand of 0.00001% was routinely used for all measurements. […] All measurements were therefore carried out at a standard excitation wavelength of 370 nm, and a constant slit width of 3 mm.
Further investigations into the relationship between aggregation-dependent tau ligands and tau aggregation inhibitors were carried out using primulin. Primulin in solution has a fluorescence peak at 520 nm. This shifts to 470 nm when primulin is bound within a pure preparation of PHFs (FIG. 6). […] Therefore, binding by such compounds is dependent on the polymerised state of tau found in the PHF, but is not present in free tau.
Compounds have been identified which disrupt the structure of the PHF and reverse the proteolytic stability of the PHF core (see WO 96/30766). Examples of such compounds are shown in accompanying FIG. 8. The present inventors have now identified that these compounds bind to tau at a specific binding site within the high affinity tau-tau binding domain.

[2] = biological target: T1, tau-tau binding (Homo sapiens, UniProt P10636); assay: Relief of DMMB inhibition of tau-tau binding by ligands (Preparation 2); format: biochemical; conditions: for BMax of tau-tau binding: Binding=(BMax×[ligand])/(Kd+[ligand])
T1 construct: a truncated tau protein corresponding to the core fragment and terminating at Ala390-dGA; dGAE which terminates at Glu-391; made in house; host or cells: E. coli BL21 (DE3), pRK172; DE52 flow-through, P11 phosphocellulose, PEG concentration, no heat step (Preparation 2)
T1 sequence (P10636 614-708 limits assumed): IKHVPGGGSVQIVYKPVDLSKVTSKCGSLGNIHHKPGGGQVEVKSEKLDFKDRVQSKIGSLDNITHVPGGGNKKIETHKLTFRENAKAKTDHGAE
Source text: 2. using tau proteins prepared in this manner for testing putative ligands in the tau-tau binding assay provided in WO96/30766 to identify substances which have minimal or entirely absent activity as tau-aggregation inhibitors or enhance tau-tau binding at high concentrations; 3. testing putative ligands in the presence of an exemplary potent tau-aggregation inhibitor, such as DMMB, at an inhibitory concentration; 4. putative ligands can be identified by the property that they lack capacity to block tau-tau binding through the repeat domain, but block the inhibitory activity of a potent tau-aggregation inhibitor.
(ii) contacting (a) a tau protein or a derivative thereof containing the tau core fragment bound to a solid phase so as to expose a high affinity tau capture site (e.g. a truncated tau protein corresponding to the core fragment and terminating at Ala390-dGA), with (b) a liquid phase tau protein or derivative thereof capable of binding to the solid phase tau protein or derivative (e.g. dGAE which terminates at Glu-391), and (c) said selected first agent and (d) a second agent known to be tau-tau binding inhibitor, (iii) selecting a first agent which fully or partially relieves the inhibition of binding of the liquid phase tau protein or derivative of (b) to the solid phase tau protein or derivative of (a) by the inhibitor (d).
Similar results are shown for 15 μM DMMB in the presence of increasing concentrations of Primulin (c) and Thiazin Red (d).
For each graph, Tau-Tau binding is shown in the presence of constant concentrations of DMMB co-incubated with Primulin at 0×, 1×, 5×, 10×, 100× the DMMB concentrations shown.
This implies that the Tau-aggregation enhancement effect of these ligands is proportional to the fraction of ligand-binding sites occupied, presumably within the Tau aggregates introduced into the aqueous-phase of the assay. The mean Bmax for both ligands is ˜1.6. That is, the maximum ligand effect is to produce 1.6-fold the Tau-Tau binding signal seen in the absence of any drug. The mean Kd for this effect is ˜15×. That is, for any given concentration of DMMB>4 μM, 50% of maximal enhancement of Tau-Tau binding can be seen when the ligand molar excess is 15-fold relative to the concentration of DMMB.

excitation peak ([1]; ligand 0.00001%): 370 nm
fluorescence (emission) peak in solution ([1]; unbound): 515 nm and 520 nm
BMax of tau-tau binding ([2]; 5 μM DMMB): 1.38
BMax of tau-tau binding ([2]; 25 μM DMMB): 1.67
Compound: Cc1ccc2sc(-c3ccc4sc(-c5ccc(N)cc5)nc4c3)nc2c1S(=O)(=O)[O-].[Na+] [primulin]
fluorescence peak when bound within PHFs ([1]; pure preparation of PHFs): 460 nm and 470 nm
reversal of inhibitory effect of DMMB on tau-tau binding ([2]; co-incubation with increasing molar excess of ligand): progressively attenuated and reversed; also recorded: completely reversed

From patent publication US8097615B2, “Neurofibrillary labels” (Wista Laboratories Ltd., priority 2001, dated 2012)
